Laboratory results taken from article PMC6934184, “Selective DNA-PKcs inhibition extends the therapeutic index of localized radiotherapy and chemotherapy” (The Journal of Clinical Investigation, 2019).

Target: T1, CDK16 (PCTK1)/cyclin Y (Homo sapiens, UniProt Q00536)
T1 construct: purchased Thermo Fisher Scientific (Life Technologies) SelectScreen
Assay: SelectScreen LanthaScreen
Assay type: binding
Settings: read-out: % displacement
Procedure, shortened: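 NU5455 was profiled across the SelectScreen Broad panel of kinase activity and binding assays. Z'LYTE reactions such as CSF1R ran at apparent Km ATP, while the Adapta CAMK1 assay used ATP listed as 10. Values are given as percent.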

T1 sequence (Q00536 whole entry): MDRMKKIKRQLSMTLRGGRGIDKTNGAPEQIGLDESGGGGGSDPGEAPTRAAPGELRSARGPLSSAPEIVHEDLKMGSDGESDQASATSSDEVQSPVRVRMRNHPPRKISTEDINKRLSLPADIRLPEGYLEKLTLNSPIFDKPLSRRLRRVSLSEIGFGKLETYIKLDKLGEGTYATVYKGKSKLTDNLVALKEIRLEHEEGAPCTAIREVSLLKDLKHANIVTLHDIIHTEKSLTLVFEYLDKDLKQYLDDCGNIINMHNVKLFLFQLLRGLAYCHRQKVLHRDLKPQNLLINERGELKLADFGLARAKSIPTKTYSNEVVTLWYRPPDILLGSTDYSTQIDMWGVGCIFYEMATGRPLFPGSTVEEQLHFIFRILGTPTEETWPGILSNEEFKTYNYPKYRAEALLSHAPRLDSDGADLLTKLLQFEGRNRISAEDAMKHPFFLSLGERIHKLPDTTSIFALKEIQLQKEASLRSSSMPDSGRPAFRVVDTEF
T1 sequence (Q8ND76 whole entry partner): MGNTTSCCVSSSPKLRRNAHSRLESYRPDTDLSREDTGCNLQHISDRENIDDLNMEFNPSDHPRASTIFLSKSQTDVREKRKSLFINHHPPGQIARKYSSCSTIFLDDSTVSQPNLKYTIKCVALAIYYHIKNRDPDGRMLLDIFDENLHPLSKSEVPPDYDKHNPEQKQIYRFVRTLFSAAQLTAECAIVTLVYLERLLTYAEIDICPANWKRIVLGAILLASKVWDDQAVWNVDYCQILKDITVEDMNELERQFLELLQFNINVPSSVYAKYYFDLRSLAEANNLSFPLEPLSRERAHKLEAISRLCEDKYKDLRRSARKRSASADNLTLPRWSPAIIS

CN(C(=O)CN1CCOCC1)c1ccc2sc3c(-c4cccc5c(=O)cc(N6CC7CCC(C6)O7)oc45)cccc3c2c1 [NU5455]
inhibition at 1 µM: 7%
